Data: publication PMC10174255, “Drug repurposing approach against chikungunya virus: an in vitro and in silico study” (Frontiers in Cellular and Infection Microbiology, 2023)

Columns and labels:
CHIKV [1] = test: Antiviral assay (pre-, co-, posttreatment) with FFU readout; details: for mean log10 viral titer/ml: VC 8.194; for anti-CHIKV activity in primary screening: highest nontoxic concentration
CHIKV [2] = test: Viral RNA copy number by quantitative RT-PCR; details: cotreatment
MTT cytotoxicity assay = details: African green monkey
Vero CCL-81 cells = test: MTT cytotoxicity assay; details: Vero CCL-81, ≥90% cell viability
CHIKV [3] = test: Viral entry assay; details: 1.56 µM
CHIKV [4] = test: Viral attachment assay; details: 1.56 µM and 0.78 µM, at 4°C and 37°C

## C[C@H](N[C@@H](CCc1ccccc1)C(=O)O)C(=O)N1CCC[C@H]1C(=O)O [Enalaprilat]
CHIKV [1]; Vero CCL-81, any treatment condition
  anti chikungunya activity: exhibit anti chikungunya activity
CHIKV [1]; cotreatment
  Selectivity Index (SI): 167.42
CHIKV [1]; cotreatment, 0.78 µM
  mean log10 viral titer/ml: 7.297 log10 FFU/ml
CHIKV [1]; cotreatment, 1.56 µM
  mean log10 viral titer/ml: 7.052 log10 FFU/ml
CHIKV [1]; cotreatment, FFU, Vero CCL-81
  IC50: 0.496 µM
CHIKV [1]; cotreatment, FFU
  anti-CHIKV activity in primary screening: effective
CHIKV [1]; posttreatment, FFU
  anti-CHIKV activity in primary screening: did not affect
CHIKV [2]
  effect on viral RNA titer: No significant reduction
MTT cytotoxicity assay
  CC50: 83 ± 18.7 µM
Vero CCL-81 cells
  The maximum nontoxic concentration used for primary screening of drugs against CHIKV: 1.56 µM
CHIKV [3]
  effect on virus titer in virus entry assay: affects the virus titer
CHIKV [4]
  effect on virus attachment: shown to influence virus attachment
